From patent publication US20200150109A1, “MICROTUBULE-TARGETING DRUGS AS IMMUNE CHECKPOINT INHIBITORS AND METHODS OF SCREENING NOVEL IMMUNE CHECKPOINT INHIBITORS FOR THE TREATMENT OF CANCERS AND INFECTIOUS DISEASES” (INSERM (Institut National de la Santé et de la Recherche …, priority 2017, published 2020)
“Also recorded” adds a separate entry of the source.

Experiments:
PD-1 (CD279) = test: Cell-based test of PD-1 cell surface expression by activated T lymphocytes (flow cytometry); set-up: species or system human; conditions: PBMC activated with CD3/CD28 beads + IL-2, 3 days, drugs at their optimum IC50 for proliferation (CPT, mitomycin C, aphidicolin 1 μM; triptolide, Lumi-colchicine 100 nM)
Protocol: Shown are means and standard deviations from more than ten independent experiments, using drugs at their respective optimum IC50 for proliferation.
(§1) PBMC isolated from healthy donors were activated with CD3/CD28 antibodies-coated beads (ThermoFisher) and IL-2 (100 IU/ml) in the presence of the specified concentration of the tested drug. In the example (FIG. 1), these drugs include CI-980 (so-called NSC 613862 or mivobulin) (10 nM, or 1 nM and 0.1 nM as indicated in Figures), Combretastatin-A4 (CBT-A4), (100 nM), Colchicine (100 nM), Indibulin (100 nM), Vincristine (1 μM), Vinblastine (1 μM), Vinflunine (1 μM), Vinorelbine (1 μM), Paclitaxel (1 μM), 13-Lumi(−)-Colchicine (100 nM), Camptothecin (CPT) (1 μM), Triptolide (100 nM), Mitomycin C (1 μM), Aphidicolin (1 μM). After 3 days of in vitro cell culture in complete medium at 37° C. in a humidified atmosphere containing 5% CO2, cells were immunostained for CD3 (BioLegend, clone UCHT1), CD4 (BioLegend, clone RPA-T4), CD8 (BioLegend, clone RPA-T8), CD69 (BioLegend, clone FN50), CD279 (BD Biosciences, clone EH12.1), LAG3 (BioLegend, clone 11C3C65), TIM3 (BioLegend, clone F38-2E2) and CTLA4 (BioLegend, clone BNI3) expression and then analysed for immune checkpoint expression by flow cytometry and gating on the indicated subsets of T or NK cells.

PD-1 protein = test: Immunoblot of PD-1 protein in CD3+ T lymphocyte cell extracts; type: cell-based, human; conditions: CD3+ T lymphocytes cell extracts, treated or not with CI-980; 3 independent experiments
Protocol: CD3+T lymphocytes cell extracts, treated or not with CI-980, were analyzed by immunoblots.

PD-1 mRNA = test: qRT-PCR of PD-1 mRNA from activated CD3+ T lymphocytes; type: cell-based, human; conditions: activated CD3+ T lymphocytes treated or not with CI-980; 3 independent experiments
LAG3 = test: Immune checkpoint expression by activated T lymphocytes (flow cytometry), LAG3; type: cell-based, human; conditions: CD3+ T lymphocytes activated with anti-CD3/CD28 beads + IL-2; CI-980 10 nM; 3 days
Protocol: (§2) CD3+ T lymphocyes were activated with anti-CD3/CD28 antibodies-coated beads plus IL-2, in the presence or absence of CI-980 (10 nM), and immune checkpoint expression were assessed by flow cytometry 3 days later.
as §1

TIM3 = test: Immune checkpoint expression by activated T lymphocytes (flow cytometry), TIM3; type: cell-based, human; conditions: CD3+ T lymphocytes activated with anti-CD3/CD28 beads + IL-2; CI-980 10 nM; 3 days
Protocol: as §2, §1

CTLA4 = test: Immune checkpoint expression by activated T lymphocytes (flow cytometry), CTLA4; type: cell-based, human; conditions: CD3+ T lymphocytes activated with anti-CD3/CD28 beads + IL-2; CI-980 10 nM; 3 days
Protocol: as §2, §1

Karpas-299 = test: Cytotoxicity assay, drug-treated activated PBMC against Karpas-299; type: cell-based, human; conditions: PBMC activated 3 days with CI-980 10 nM, rinsed, 4 hours with Karpas-299, 2:1 effector-to-target ratio
Protocol: (§3) PBMC isolated from healthy donors were activated with anti-CD3/CD28 antibodies-coated beads plus IL-2, in the presence or absence of CI-980 (10 nM). After 3 days, PBMC were rinsed and co-incubated for 4 hours with the PD-L1^+ cancer cell lines Karpas-299 or SU-DHL-1. Specific lysis of the target cell lines was then measured by staining of dying cells with propidium iodide (PI) and flow cytometry analysis.
(§4) PBMC isolated from healthy donors, used as effector cells, were activated with CD3/CD28 beads and IL-2, in presence or absence of CI-980 (10 nM). Human cancer cell lines-expressing PD-L1 karpas-299 and SU-DHL-1 were used as targets cells. Prior to be mixed with the effector cells, target cells were labelled with CellTrace-Violet (ThermoFisher) in order to distinguish them from the effector cells. After 3 days, effector cells were rinsed and combined with target cells at a 2:1 effector-to-target ratio. Cells were incubated during 4 hours at 37° C. and specific lysis were analysed by flow cytometry. The percentage of lysis was determined as percent of cells positive for both propidium iodide (PI) and CellTrace-Violet versus cells positive for CellTrace-Violet.

SU-DHL-1 = test: Cytotoxicity assay, drug-treated activated PBMC against SU-DHL-1; type: cell-based, human; conditions: PBMC activated 3 days with CI-980 10 nM, rinsed, 4 hours with SU-DHL-1, 2:1 effector-to-target ratio
Protocol: as §3, §4

[1] = biological target: T1, PD-1 protein (programmed cell death protein 1, endogenous, from activated human CD3+ T lymphocytes) (human, UniProt Q15116 25-288); test: co-immunoprecipitation with anti-α-tubulin antibody from activated human CD3+ T lymphocyte extract, immunoblot for PD-1
T1 construct: Endogenous PD-1 in a T lymphocyte cell extract, detected by Western blot with anti-PD-1 (ThermoFisher PA5-20350); also called CD279; PDCD1
T1 sequence (Q15116 25-288 limits assumed): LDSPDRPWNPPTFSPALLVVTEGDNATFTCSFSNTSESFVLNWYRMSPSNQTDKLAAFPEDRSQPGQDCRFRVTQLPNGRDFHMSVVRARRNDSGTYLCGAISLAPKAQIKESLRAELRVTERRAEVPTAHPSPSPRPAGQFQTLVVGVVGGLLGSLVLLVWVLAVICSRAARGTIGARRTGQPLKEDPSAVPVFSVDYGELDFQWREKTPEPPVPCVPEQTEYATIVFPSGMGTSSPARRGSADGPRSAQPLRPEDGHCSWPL
Protocol: FIG. 4: PD-1 protein is not associated with tubulin in T lymphocytes.
α-tubulin was immunoprecipitated from activated CD3+T lymphocytes isolated from human PBMC of healthy donors using an anti-α-tubulin antibody (Sigma-Aldrich, clone B-5-1-2). Immunoprecipitation control with an anti-PD-1 antibody (ebioscience, clone J116) was also carried out. Immunoprecipitates were subjected to SDS-PAGE, and the co-immunoprecipitated PD-1 was assessed by Western Blot using an anti-PD-1 antibody (ThermoFisher, # PA5-20350).

**Q.** Which “PD-1 cell surface expression” value (PD-1 (CD279)) does the source give for CO[C@@]12[C@H](COC(N)=O)C3=C(C(=O)C(C)=C(N)C3=O)N1C[C@@H]1N[C@@H]12 [mitomycin C] here?
**A.** do not inhibit PD-1 expression; also recorded: do not impact PD-1 expression

**Q.** CC[C@@]1(O)C(=O)OCc2c1cc1n(c2=O)Cc2cc3ccccc3nc2-1 [camptothecin] was tested. Which “PD-1 cell surface expression” value (PD-1 (CD279)) did it give?
**A.** do not inhibit PD-1 expression; also recorded: do not impact PD-1 expression

**Q.** How did the “PD-1 cell surface expression” value (PD-1 (CD279)) turn out when COC1=C[C@@H]2C3=C([C@@H]2C1=O)[C@@H](NC(C)=O)CCc1cc(OC)c(OC)c(OC)c13 [beta-Lumi(−)-colchicine] was run?
**A.** does not affect PD-1 expression

**Q.** What about the “PD-1 cell surface expression” value (PD-1 (CD279); listed as β-Lumi(−)-Colchicine) of the same molecule?
**A.** do not impact PD-1 expression

**Q.** Which “PD-1 cell surface expression” value (PD-1 (CD279)) does the source give for C[C@@]1(CO)[C@H](O)CC[C@@]2(C)[C@H]1CC[C@H]1C[C@@H]3C[C@@]12CC[C@]3(O)CO [aphidicolin] here?
**A.** do not inhibit PD-1 expression; also recorded: do not impact PD-1 expression

**Q.** Which “PD-1 cell surface expression” value (PD-1 (CD279)) does the source give for CC(C)[C@]12O[C@H]1[C@@H]1O[C@]13[C@]1(O[C@H]1C[C@H]1C4=C(CC[C@@]13C)C(=O)OC4)[C@@H]2O [triptolide] here?
**A.** do not inhibit PD-1 expression; also recorded: do not impact PD-1 expression

**Q.** Which “expression of PD-1 protein (immunoblot)” value (PD-1 protein) does the source give for CCOC(=O)Nc1cc2c(c(N)n1)N=C(c1ccccc1)[C@H](C)N2 [CI-980] here?
**A.** inhibit expression of PD-1 protein

**Q.** And the “PD-1 mRNA level (qRT-PCR)” value (PD-1 mRNA)?
**A.** increase PD-1 mRNA level

**Q.** And the “expression of LAG3” value (LAG3)?
**A.** inhibits

**Q.** And the “expression of TIM3” value (TIM3)?
**A.** inhibits

**Q.** And the “expression of CTLA4” value (CTLA4)?
**A.** inhibits

**Q.** And the “cytolytic activity (specific lysis of target cells, PI staining)” value (Karpas-299)?
**A.** enhance cytolytic activity of immune cells

**Q.** What about the “cytolytic activity (specific lysis of target cells, PI staining)” value (SU-DHL-1) of the same molecule?
**A.** enhance cytolytic activity of immune cells

B1: tubulin (endogenous, immunoprecipitated with an anti-α-tubulin antibody from extracts of activated human CD3+ T lymphocytes) (other)
chain 1: MRECISIHVGQAGVQIGNACWELYCLEHGIQPDGQMPSDKTIGGGDDSFNTFFSETGAGKHVPRAVFVDLEPTVIDEVRTGTYRQLFHPEQLITGKEDAANNYARGHYTIGKEIIDLVLDRIRKLADQCTRLQGFLVFHSFGGGTGSGFTSLLMERLSVDYGKKSKLEFSIYPAPQVSTAVVEPYNSILTTHTTLEHSDCAFMVDNEAIYDICRRNLDIERPTYTNLNRLISQIVSSITASLRFDGALNVDLTEFQTNLVPYPRIHFPLATYAPVISAEKAYHEQLSVADITNACFEPANQMVKCDPGHGKYMACCLLYRGDVVPKDVNAAIATIKTKRTIQFVDWCPTGFKVGINYQPPTVVPGGDLAKVQRAVCMLSNTTAIAEAWARLDHKFDLMYAKRAFVHWYVGEGMEEGEFSEAREDMAALEKDYEEVGVDSVEGEGEEEGEEY
chain 2: MREIVHIQAGQCGNQIGAKFWEVISDEHGIDPTGTYHGDSDLQLDRISVYYNEATGGKYVPRAILVDLEPGTMDSVRSGPFGQIFRPDNFVFGQSGAGNNWAKGHYTEGAELVDSVLDVVRKEAESCDCLQGFQLTHSLGGGTGSGMGTLLISKIREEYPDRIMNTFSVVPSPKVSDTVVEPYNATLSVHQLVENTDETYCIDNEALYDICFRTLRLTTPTYGDLNHLVSGTMECVTTCLRFPGQLNADLRKLAVNMVPFPRLHFFMPGFAPLTSRGSQQYRALTVPDLTQQVFDAKNMMAACDPRHGRYLTVAAVFRGRMSMKEVDEQMLNVQNKNSSYFVEWIPNNVKTAVCDIPPRGLKMAVTFIGNSTAIQELFKRISEQFTAMFRRKAFLHWYTGEGMDEMEFTEAESNMNDLVSEYQQYQDATAEEEEDFGEEAEEEA
notes: Endogenous protein from a cell lysate; also called alpha-tubulin
**Q.** Does B1 bind [1]?
**A.** no binding
